The results in this text go back to US5169856A, “Piperidinoalkyl derivatives of carboxylic acid amides” (priority 1988, dated 1992).

Where a name gives a salt, the structure may show the parent alone.

T1 sequence (P37136 32-614): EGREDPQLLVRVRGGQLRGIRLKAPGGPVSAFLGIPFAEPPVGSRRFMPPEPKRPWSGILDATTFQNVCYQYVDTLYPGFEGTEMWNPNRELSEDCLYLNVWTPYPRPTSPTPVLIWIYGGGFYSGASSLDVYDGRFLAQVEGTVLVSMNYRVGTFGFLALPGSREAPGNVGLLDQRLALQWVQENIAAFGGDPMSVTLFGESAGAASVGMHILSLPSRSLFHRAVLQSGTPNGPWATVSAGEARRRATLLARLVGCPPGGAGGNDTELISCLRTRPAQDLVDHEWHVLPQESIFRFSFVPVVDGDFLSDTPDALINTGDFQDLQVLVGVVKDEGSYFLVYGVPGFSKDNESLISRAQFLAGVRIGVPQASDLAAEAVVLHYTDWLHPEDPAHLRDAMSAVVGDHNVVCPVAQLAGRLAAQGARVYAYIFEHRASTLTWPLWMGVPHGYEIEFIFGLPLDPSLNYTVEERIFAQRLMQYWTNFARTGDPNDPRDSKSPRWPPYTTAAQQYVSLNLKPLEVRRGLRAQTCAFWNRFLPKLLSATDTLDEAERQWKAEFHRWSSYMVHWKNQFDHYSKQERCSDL

This test has as its target T1, acetylcholinesterase (Rattus norvegicus, UniProt P37136).
T1 construct: S1 fraction of the cerebral cortex of male Wistar rats, the enzyme source; from tissue; host or cells: S1 fraction of the cerebral cortex of male Wistar rats
As to the kind of experiment: Inhibition of cholinesterase activity, radiometric ([acetyl-3H]-acetylcholine), S1 fraction of rat cerebral cortex. The format is biochemical, male Wistar rats. The conditions noted are these: 15 min preincubation at room temperature, [acetyl-3H]-acetylcholine final 200 μM, 30 min, read-out: Anti-acetylcholinesterase activity IC50. The protocol:
Cholinesterase activity was measured radiometrically by the method of Johnson and Russell^1), modified by Kleinberger and Yanal^2), with a slight modification.
S1 fraction of the cerebral cortex of male Wistar rats, the enzyme source, was preincubated in a scintillation vial with drugs for 15 min at room temperature, and then [acetyl-^3 H]-acetylchollne (final 200 μM) was added and incubated further for 30 min. The reaction was terminated by adding solution containing 1 M chloroacetic acid, followed by toluene-based scintillant, and the vials were capped and shaken to transfer the product, [^3 H]-acetic acid, to toluene phase. Then radioactivity in the toluene phase was counted by liquid scintillation spectrometry. Inhibitory activity of the test drug was expressed by 50%-inhibitory concentration (IC50), which was calculated by linear regression of log-probit transformation of the inhibition curve.
`O=C(/C=C/c1ccccc1)NCCC1CCN(Cc2ccccc2)CC1` [Example 1, (E)-3-Phenyl-N-[2-(1-benzylpiperidin-4-yl)ethyl]-2propenamide.hydrochloride]: the IC50 (as a rule, the concentration that gives 50% inhibition) was determined as 9.6 µM.

Regarding `CN(CCC1CCN(Cc2ccccc2)CC1)C(=O)/C=C/c1ccccc1` [Example 2, (E)-3-Phenyl-N-methyl-N-[2-(1-benzylpiperidin-4-yl)ethyl]-2-propenamide.hydrochloride], the IC50 stood at 18 µM.

`CC(=O)N(CCC1CCN(Cc2ccccc2)CC1)C(=O)/C=C/c1ccccc1` [Example 3, (E)-3-Phenyl-N-acetyl-N-[2-(1-benzylpiperidin-4yl)ethyl]-2-propenamide.hydrochloride]: the IC50 turned out to be 0.64 µM.

As to `CC(=Cc1ccccc1)C(=O)NCCC1CCN(Cc2ccccc2)CC1` [Example 4-1], the IC50 was found to be 8.1 µM.

With `O=C(NCCC1CCN(Cc2ccccc2)CC1)C(=Cc1ccccc1)c1ccccc1` [Example 4-2], the IC50 was found to be 3.5 µM.

Turning to `O=C(C=Cc1cccnc1)NCCC1CCN(Cc2ccccc2)CC1` [Example 4-3], the IC50 was 2 µM.

Consider `O=C(C=Cc1ccco1)NCCC1CCN(Cc2ccccc2)CC1` [Example 4-4], for which the IC50 amounted to 9.9 µM.

Turning to `O=C(C=Cc1cccs1)NCCC1CCN(Cc2ccccc2)CC1` [Example 4-5], the IC50 came out at 13 µM.

Take `COc1ccc(C=CC(=O)NCCC2CCN(Cc3ccccc3)CC2)cc1OC` [Example 4-6]: the IC50 is 2.6 µM.

With `COc1cc2c(cc1OC)CCC(C(=O)NCCC1CCN(Cc3ccccc3)CC1)=C2` [Example 4-7], the IC50 turned out to be 1.2 µM.

Turning to `O=C(C=Cc1ccc([N+](=O)[O-])cc1)NCCC1CCN(Cc2ccccc2)CC1` [Example 4-8], the IC50 worked out at 2.8 µM.

As to `N#Cc1ccc(C=CC(=O)NCCC2CCN(Cc3ccccc3)CC2)cc1` [Example 4-9], the IC50 came out at 3.3 µM.

As for `CS(=O)(=O)c1ccc(C=CC(=O)NCCC2CCN(Cc3ccccc3)CC2)cc1` [Example 4-10], the IC50 turned out to be 1.6 µM.

In the case of `Cc1ccc(C=CC(=O)NCCC2CCN(Cc3ccccc3)CC2)cc1` [Example 4-11], the IC50 stood at 15 µM.

On to `O=C(C=Cc1ccc(Cl)cc1)NCCC1CCN(Cc2ccccc2)CC1` [Example 4-12], for which the IC50 stood at 9.2 µM.
